This is an account of results in US10799521B2, “Use of icaritin in preparing medicament for preventing or treating hematocytopenia” (Lunan Pharmaceutical Group Corporation, priority 2013, dated 2020).

Data set [1] relates to model of thrombocytopenia induced by cyclophosphamide in mice. The experiment in a line: Thrombocytopenia induced by cyclophosphamide in mice (platelets in peripheral blood). The class given is in vivo, Balb/C mice. The settings on record: cyclophosphamide model mice, 3 weeks, x ± s. The procedure: 72 Balb/C mice were selected, weighed, and randomly divided into 6 groups, i.e. the normal group, the model control group, the icariin group (positive control group), and the icaritin administration groups (high-, medium-, and low-dose groups), with 12 mice in each group. […] One week before starting to establish the model, each group was administered with the following therapeutic agents:
The normal group: administered subcutaneously with the same volume of normal saline;
The model control group: administered subcutaneously with the same volume of normal saline;
(§1) The icariin group: administered by subcutaneous injection with 2 mg/kg of icariin;
(§2) The high-dose icaritin group: administered by subcutaneous injection with 10 mg/kg of the icaritin injection of Example 11;
(§3) The medium-dose icaritin group: administered by subcutaneous injection with 5 mg/kg of the icaritin injection of Example 11;
(§4) The low-dose icaritin group: administered by subcutaneous injection with 1 mg/kg of the icaritin injection of Example 11.
Each group was administered once a day and fed normally. After consecutive administration for 3 weeks, the mice were anesthetized, and blood was sampled to measure the number of platelets and determine the effect of icaritin on the number of platelets (PLT) in the peripheral blood.

Data set [2] relates to chronic ITP model rats. The data set is described as follows: Thrombin time, prothrombin time and partial thromboplastin time in chronic ITP model rats. The class given is in vivo, Wistar rats. Particulars: high- and medium-dose groups, P<0.05. As to the method: (§5) Establishment of chronic ITP model: Wistar rats were selected to establish the model by injecting rabbit anti-rat platelet serum (APS). […] 50 Rats in which the model was successfully established were selected, weighed, and randomly divided into 5 groups, i.e. the model control group, the icariin group (positive control group), and the icaritin administration groups (high-, medium- and low-dose groups), with 10 rats in each group. The groups were administered with the following therapeutic agents, respectively.

The next data set concerns NOD/Ltj mice. The data set is described as follows: Effect on the white blood cells and platelets in NOD mice. The class given is in vivo. Particulars: 15 days. As to the method:
Non-obese diabetic (NOD) mice are a large mouse strains, including NOD/Scid, NOD/Ltj mice, etc. The NOD/Ltj mice used in this experiment are mice with an abnormal immune system in which platelets and white blood cells are obviously lower than those in normal mice.
5-Week-old healthy NOD mice, after adaptive feeding for one week, were randomly divided into 4 groups:
Group I was the blank control group, totally 13 mice; and was administered intragastrically with normal saline in the same volume of interleukin daily;
Group II was the positive control group, totally 13 mice, and was administered intragastrically with 10.0 mg/kg of interleukin daily;
Group III was the low-dose icaritin group, totally 13 mice, and was administered intragastrically with 30 mg/kg of icaritin daily;
Group IV was the high-dose icaritin group, totally 13 mice, and was administered intragastrically with 60 mg/kg of icaritin daily.
Each group was administered once a day for consecutively 15 days. The mice were anaesthetized (with 3% pentobarbital sodium, by intraperitoneal injection, at 0.1-0.15 ml per animal). 1 ml of blood wass sampled from abdominal aorta into an anticoagulation tube for routine blood test.

On the set-up of data set [3]: species or system Kunming mice. Particulars: mouse, in vivo. As to the method:
Mice ascites tumor s180 cells were conventionally incubated in 1640 culture medium, at 37° C., 5% CO2, and passaged once every two days in average. The cells in the logarithmic growth phase were prepared into a single-cell suspension having a density of 3.0×10^7 cells/ml with normal saline, which was injected into the abdominal cavities of mice under sterile conditions. Seven days after inoculation, significant swelling of the abdominal cavities of mice can be seen. As this time, the mice were executed by cervical vertebra luxation, put into a beaker containing 75% ethanol and soaked for 2-3 minutes. The sterilized mice were placed into an ultraclean bench, and the abdomens were exposed. The ascites was drawn with a sterile syringe and put into a sterile reagent bottle for further use. The above ascites was counted with trypan blue, diluted with normal saline to adjust to 2.0×10^7 cells/ml, and inoculated at the right armpit of the mice with 0.2 ml for each mouse.
The inoculated mice were randomly divided into 6 groups, with 10 animals in each group and half male and half female.
Docetaxel and icaritin were administered by tail intravenous injection with an administration volume of 10 ml/kg for each. Tegafur, Gimeracil and Oteracil Potassium Capsules was intragastrically administered with an administration volume of 40 ml/kg. Each group was administered once a day for totally 10 days. During the test, the animals were observed every day for their food and water uptake, survival conditions and behaviors, and measured for their body weights every day. After the test was ended, the mice were anaesthetized and anatomized. Blood was collected from abdominal aorta for routine blood test, and the total number of white blood cells, the total number of platelets and the total number of neutrophils were determined.

Data set [4] has as its system chronic ITP model rats. The data set is described as follows: Platelet count in chronic ITP model rats (anti-rat platelet serum). The class given is in vivo, Wistar rats. As to the method:
as §5
The model control group: administered by subcutaneous injection with the same volume of normal saline;
as §1, §2, §3, §4
At 1 h after the last administration, blood was sampled from the venous plexus by inserting a disposable 20 μl blood collection tube into the inner canthus of the […].

Setting [5] is: low dose 1 mg/kg sc (injection of Example 11).
Setting [6] is: medium dose 5 mg/kg sc (injection of Example 11).
The mark [7] stands for this setting: high dose 60 mg/kg intragastrically daily.
Where [8] appears, read: low dose 30 mg/kg intragastrically daily.

The structures appear in SMILES notation. Marks after values point to notes of the source that are not given here.

As for `COc1ccc(-c2oc3c(CC=C(C)C)c(O)cc(O)c3c(=O)c2O)cc1` [Icaritin], the figures for the PLT in data set [1] (setting [5]) and in data set [1] (setting [6]) were 633.5 ± 43.2 10^9/L and 725.9 ± 66.7 10^9/L, respectively. Further, the “partial thromboplastin time (APTT)” value in the data set on chronic ITP model rats [2] is listed as “significantly shorten”. Besides, in the data set on chronic ITP model rats [2], the “prothrombin time (PT)” value is “significantly shorten”. Moreover, in the data set on chronic ITP model rats [2], the “thrombin time (TT)” value is on record as “significantly shorten”. Further, the Platelets is on record as 780.2 ± 46.5 ^##$$ 10^9/L in the data set on NOD/Ltj mice (setting [7]) and 730.5 ± 34.6^##$ 10^9/L with NOD/Ltj mice (setting [8]). In addition, the White blood cells in the data set with NOD/Ltj mice (setting [7]) is given as 4.225 ± 0.51^##$ 10^9/L; in the data set with NOD/Ltj mice (setting [8]) it was 3.242 ± 0.45 ^#$ 10^9/L. Moreover, the “Body weight Before Administration” value in data set [3] was 21.1 ± 3.0 g. In addition, the figures for the Platelet count in the data set on chronic ITP model rats [4] (high dose 10 mg/kg sc (injection of Example 11)), in the data set on chronic ITP model rats [4] (setting [5]) and in the data set with chronic ITP model rats [4] (setting [6]) were 819.96 ± 61.8**^ΔΔ ×10^9, 680.84 ± 50.5 ×10^9 and 720.4 ± 60.3**^Δ ×10^9, respectively.
